Data as given in PubChem BioAssay AID1963425 (Molecular Pharmacology Branch, DTP, NCI, 2024).

Test system: 323965-272-R-J2-PDC complex spheroid growth, % test/control
Test: Anticancer human tumor 323965-272-R-J2-PDC patient-derived pancreatic carcinoma cell line growth inhibition [Asc]
Settings: for IC50: curve of first compound; for viability, T/C: stronger effect = lower value; active = viability on the fitted dose curve at most 10% of control; inactive = the rest
In short: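 Complex solid-tumor spheroids incorporating human endothelial and mesenchymal stem cells received single agents or combinations over half-log dilution ranges anchored to clinical Cmax.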
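Note: compound exposure lasted 7 days starting three days after spheroid seeding.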
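Throughout, for viability, T/C: 100% = DMSO vehicle control wells with viability set relative to vehicle.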

CCN1C(C(=O)NC23CCC(C(=O)O)(CC2)CC3)C(c2cccc(Cl)c2F)C2(C(=O)Nc3cc(Cl)ccc32)C12CCCCC2 (centres undefined) + CNC(C)C(=O)NC1CN(S(=O)(=O)c2cccc(S(=O)(=O)N3CCC4CCC(C(=O)NC(c5ccccc5)c5ccccc5)N4C(=O)C(NC(=O)C(C)NC)C3)c2)CCC2CCC(C(=O)NC(c3ccccc3)c3ccccc3)N2C1=O
> 3 µM: IC50 (second compound 0.00316 µM) | IC50 (second compound 0.01 µM) | IC50 (second compound 0.0316 µM) | IC50 (second compound 0.1 µM) | IC50 (second compound 0.316 µM) | IC50 (second compound 1 µM)
inactive: viability, T/C (second compound 0.00316 µM, first compound 0.00949 µM) 107% | viability, T/C (second compound 0.00316 µM, first compound 0.03 µM) 93.6% | viability, T/C (second compound 0.00316 µM, first compound 0.0949 µM) 98.2% | viability, T/C (second compound 0.00316 µM, first compound 0.3 µM) 93.1% | viability, T/C (second compound 0.00316 µM, first compound 0.949 µM) 105% | viability, T/C (second compound 0.00316 µM, first compound 3 µM) 89.3% | viability, T/C (second compound 0.01 µM, first compound 0.00949 µM) 110% | viability, T/C (second compound 0.01 µM, first compound 0.03 µM) 97.8% | viability, T/C (second compound 0.01 µM, first compound 0.0949 µM) 101% | viability, T/C (second compound 0.01 µM, first compound 0.3 µM) 93.5% | viability, T/C (second compound 0.01 µM, first compound 0.949 µM) 97% | viability, T/C (second compound 0.01 µM, first compound 3 µM) 89.7% | viability, T/C (second compound 0.0316 µM, first compound 0.00949 µM) 99.9% | viability, T/C (second compound 0.0316 µM, first compound 0.03 µM) 99.1% | viability, T/C (second compound 0.0316 µM, first compound 0.0949 µM) 105% | viability, T/C (second compound 0.0316 µM, first compound 0.3 µM) 101% | viability, T/C (second compound 0.0316 µM, first compound 0.949 µM) 92.2% | viability, T/C (second compound 0.0316 µM, first compound 3 µM) 82.7% | viability, T/C (second compound 0.1 µM, first compound 0.00949 µM) 116% | viability, T/C (second compound 0.1 µM, first compound 0.03 µM) 97.7% | viability, T/C (second compound 0.1 µM, first compound 0.0949 µM) 97.8% | viability, T/C (second compound 0.1 µM, first compound 0.3 µM) 104% | viability, T/C (second compound 0.1 µM, first compound 0.949 µM) 87.5% | viability, T/C (second compound 0.1 µM, first compound 3 µM) 83.9% | viability, T/C (second compound 0.316 µM, first compound 0.00949 µM) 93% | viability, T/C (second compound 0.316 µM, first compound 0.03 µM) 81.6% | viability, T/C (second compound 0.316 µM, first compound 0.0949 µM) 94.8% | viability, T/C (second compound 0.316 µM, first compound 0.3 µM) 93.3% | viability, T/C (second compound 0.316 µM, first compound 0.949 µM) 95.7% | viability, T/C (second compound 0.316 µM, first compound 3 µM) 86.2% | viability, T/C (second compound 1 µM, first compound 0.00949 µM) 90.8% | viability, T/C (second compound 1 µM, first compound 0.03 µM) 87.6% | viability, T/C (second compound 1 µM, first compound 0.0949 µM) 94.7% | viability, T/C (second compound 1 µM, first compound 0.3 µM) 85.5% | viability, T/C (second compound 1 µM, first compound 0.949 µM) 89.5% | viability, T/C (second compound 1 µM, first compound 3 µM) 76.6%

Cn1ncnc1[C@H]1c2n[nH]c(=O)c3cc(F)cc(c23)N[C@@H]1c1ccc(F)cc1 + CNC(C)C(=O)NC1CN(S(=O)(=O)c2cccc(S(=O)(=O)N3CCC4CCC(C(=O)NC(c5ccccc5)c5ccccc5)N4C(=O)C(NC(=O)C(C)NC)C3)c2)CCC2CCC(C(=O)NC(c3ccccc3)c3ccccc3)N2C1=O
> 0.1 µM: IC50 (second compound 0.01 µM) | IC50 (second compound 0.0316 µM) | IC50 (second compound 0.1 µM) | IC50 (second compound 0.316 µM) | IC50 (second compound 1 µM)
inactive: viability, T/C (second compound 0.00316 µM, first compound 0.000316 µM) 49.4% | viability, T/C (second compound 0.00316 µM, first compound 0.001 µM) 49.2% | viability, T/C (second compound 0.00316 µM, first compound 0.00316 µM) 46.2% | viability, T/C (second compound 0.00316 µM, first compound 0.01 µM) 47.6% | viability, T/C (second compound 0.00316 µM, first compound 0.0316 µM) 49.5% | viability, T/C (second compound 0.00316 µM, first compound 0.1 µM) 47.7% | viability, T/C (second compound 0.01 µM, first compound 0.000316 µM) 119% | viability, T/C (second compound 0.01 µM, first compound 0.001 µM) 92.3% | viability, T/C (second compound 0.01 µM, first compound 0.00316 µM) 97.3% | viability, T/C (second compound 0.01 µM, first compound 0.01 µM) 90.1% | viability, T/C (second compound 0.01 µM, first compound 0.0316 µM) 87.8% | viability, T/C (second compound 0.01 µM, first compound 0.1 µM) 85.5% | viability, T/C (second compound 0.0316 µM, first compound 0.000316 µM) 107% | viability, T/C (second compound 0.0316 µM, first compound 0.001 µM) 93.8% | viability, T/C (second compound 0.0316 µM, first compound 0.00316 µM) 87.6% | viability, T/C (second compound 0.0316 µM, first compound 0.01 µM) 105% | viability, T/C (second compound 0.0316 µM, first compound 0.0316 µM) 92% | viability, T/C (second compound 0.0316 µM, first compound 0.1 µM) 91% | viability, T/C (second compound 0.1 µM, first compound 0.000316 µM) 94.3% | viability, T/C (second compound 0.1 µM, first compound 0.001 µM) 106% | viability, T/C (second compound 0.1 µM, first compound 0.00316 µM) 112% | viability, T/C (second compound 0.1 µM, first compound 0.01 µM) 97.6% | viability, T/C (second compound 0.1 µM, first compound 0.0316 µM) 84% | viability, T/C (second compound 0.1 µM, first compound 0.1 µM) 91.7% | viability, T/C (second compound 0.316 µM, first compound 0.000316 µM) 103% | viability, T/C (second compound 0.316 µM, first compound 0.001 µM) 89.8% | viability, T/C (second compound 0.316 µM, first compound 0.00316 µM) 101% | viability, T/C (second compound 0.316 µM, first compound 0.01 µM) 92.7% | viability, T/C (second compound 0.316 µM, first compound 0.0316 µM) 88.2% | viability, T/C (second compound 0.316 µM, first compound 0.1 µM) 89% | viability, T/C (second compound 1 µM, first compound 0.000316 µM) 87.5% | viability, T/C (second compound 1 µM, first compound 0.001 µM) 90.7% | viability, T/C (second compound 1 µM, first compound 0.00316 µM) 94.4% | viability, T/C (second compound 1 µM, first compound 0.01 µM) 83.7% | viability, T/C (second compound 1 µM, first compound 0.0316 µM) 89.7% | viability, T/C (second compound 1 µM, first compound 0.1 µM) 86.3%
< 0.000316 µM: IC50 (second compound 0.00316 µM)
